Measured values as given in the supplement of paper PMC10307832.

What was measured:
Experiment in all cases: relative viability (nuclei count vs DMSO), 5 days (fraction); higher = more cells survive
Pictilisib + Crizotinib = compound: CS(=O)(=O)N1CCN(Cc2cc3nc(-c4cccc5[nH]ncc45)nc(N4CCOCC4)c3s2)CC1 [Pictilisib] + C[C@@H](Oc1cc(-c2cnn(C3CCNCC3)c2)cnc1N)c1c(Cl)ccc(F)c1Cl [Crizotinib] (partner 1 µM)
Method in brief: (§1)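 Lung cancer cell lines in 1536-well plates were dosed by pin tool the day after seeding, either with one drug alone or with a fixed anchor-drug dose plus five library-drug doses (not always all listed) in √10 steps. After 5 days, cells were fixed and their nuclei stained in one step (final 0.05% Triton X-100, 1% formaldehyde, 1 ug/ml Hoechst), then counted on 4× images. Relative viability is the nuclei count in treated wells divided by that in vehicle wells. Values are medians of duplicate plates.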

MK-2206 + Foretinib = compound: NC1(c2ccc(-c3nc4ccn5c(=O)[nH]nc5c4cc3-c3ccccc3)cc2)CCC1 [MK-2206] + COc1cc2c(Oc3ccc(NC(=O)C4(C(=O)Nc5ccc(F)cc5)CC4)cc3F)ccnc2cc1OCCCN1CCOCC1 [Foretinib] (partner 0.25 µM)
Method in brief: as §1

MK-2206 + OSI-027 = compound: NC1(c2ccc(-c3nc4ccn5c(=O)[nH]nc5c4cc3-c3ccccc3)cc2)CCC1 [MK-2206] + COc1cccc2cc(-c3nc([C@H]4CC[C@H](C(=O)O)CC4)n4ncnc(N)c34)[nH]c12 [OSI-027] (partner 0.5 µM)
Method in brief: as §1

MK-2206 + AZD7762 = compound: NC1(c2ccc(-c3nc4ccn5c(=O)[nH]nc5c4cc3-c3ccccc3)cc2)CCC1 [MK-2206] + NC(=O)Nc1cc(-c2cccc(F)c2)sc1C(=O)N[C@H]1CCCNC1 [AZD7762] (partner 0.2 µM)
Method in brief: as §1

MK-2206 + Decitabine = compound: NC1(c2ccc(-c3nc4ccn5c(=O)[nH]nc5c4cc3-c3ccccc3)cc2)CCC1 [MK-2206] + Nc1ncn([C@H]2C[C@H](O)[C@@H](CO)O2)c(=O)n1 [Decitabine] (partner 2 µM)
Method in brief: as §1

Cell Line | relative viability (Pictilisib + Crizotinib; first compound 0.02 µM) | relative viability (Pictilisib + Crizotinib; first compound 0.06325 µM) | relative viability (Pictilisib + Crizotinib; first compound 0.6325 µM) | relative viability (Pictilisib + Crizotinib; first compound 2 µM) | relative viability (MK-2206 + Foretinib; first compound 0.01 µM) | relative viability (MK-2206 + Foretinib; first compound 0.03162 µM) | relative viability (MK-2206 + Foretinib; first compound 0.3162 µM) | relative viability (MK-2206 + Foretinib; first compound 1 µM) | relative viability (MK-2206 + OSI-027; first compound 0.01 µM) | relative viability (MK-2206 + OSI-027; first compound 0.03162 µM) | relative viability (MK-2206 + OSI-027; first compound 0.3162 µM) | relative viability (MK-2206 + OSI-027; first compound 1 µM) | relative viability (MK-2206 + AZD7762; first compound 0.01 µM) | relative viability (MK-2206 + AZD7762; first compound 0.03162 µM) | relative viability (MK-2206 + AZD7762; first compound 0.3162 µM) | relative viability (MK-2206 + AZD7762; first compound 1 µM) | relative viability (MK-2206 + Decitabine; first compound 0.01 µM) | relative viability (MK-2206 + Decitabine; first compound 0.03162 µM) | relative viability (MK-2206 + Decitabine; first compound 0.3162 µM) | relative viability (MK-2206 + Decitabine; first compound 1 µM)
NCI-H322M | 0.834 | 0.936 | 0.878 | 0.834 | 0.871 | 1.11 | 1.1 | 1.01 | 0.484 | 0.49 | 0.386 | 0.377 | 0.58 | 0.576 | 0.563 | 0.516 | 0.677 | 0.735 | 0.787 | 0.624
HARA | 1.05 | 1.15 | 0.972 | 0.722 | 0.944 | 0.951 | 0.929 | 0.809 | 0.536 | 0.564 | 0.304 | 0.194 | 0.0277 | 0.264 | 0.179 | 0.4 | 0.435 | 0.481 | 0.551 | 0.587
NCI-H1437 | 0.941 | 0.952 | 1.03 | 0.652 | 1.19 | 1.27 | 1.35 | 1.35 | 0.91 | 0.844 | 0.746 | 0.675 | 1.18 | 1.11 | 1.16 | 1.09 | 0.603 | 0.559 | 0.562 | 0.521
BEN | 0.8 | 1.07 | 0.817 | 0.58 | 0.687 | 0.76 | 0.709 | 0.606 | 0.3 | 0.301 | 0.271 | 0.297 | 0.729 | 0.621 | 0.713 | 0.601 | 0.909 | 0.673 | 0.679 | 0.643
LXF-289 | 0.862 | 0.837 | 0.843 | 0.752 | 0.932 | 0.941 | 1.01 | 1.05 | 0.782 | 0.862 | 0.604 | 0.743 | 1.06 | 1.01 | 1.12 | 1.15 | 0.398 | 0.418 | 0.412 | 0.396
NCI-H358 | 0.658 | 0.455 | 0.607 | 0.408 | 0.767 | 0.841 | 0.661 | 0.685 | 0.819 | 0.765 | 0.531 | 0.487 | 0.628 | 0.423 | 0.552 | 0.609 | 0.216 | 0.208 | 0.201 | 0.217
NCI-H1993 | 0.766 | 0.691 | 0.726 | 0.638 | 0.761 | 0.773 | 0.665 | 0.57 | 0.493 | 0.579 | 0.469 | 0.595 | 0.804 | 0.864 | 0.483 | 0.475 | 0.533 | 0.585 | 0.516 | 0.491
NCI-H727 | 0.934 | 0.912 | 0.76 | 0.401 | 1.12 | 0.889 | 0.838 | 0.942 | 0.479 | 0.615 | 0.537 | 0.52 | 0.563 | 0.485 | 0.58 | 0.575 | 0.959 | 0.833 | 0.884 | 0.755
LOU-NH91 | 0.725 | 0.708 | 0.716 | 0.571 | 0.984 | 0.958 | 0.927 | 0.917 | 0.72 | 0.695 | 0.668 | 0.555 | 0.8 | 0.751 | 0.705 | 0.605 | 0.783 | 0.839 | 0.793 | 0.768
NCI-H1975 | 0.915 | 0.9 | 0.713 | 0.307 | 1.08 | 0.96 | 0.91 | 0.801 | 0.745 | 0.611 | 0.42 | 0.381 | 0.745 | 0.748 | 0.595 | 0.582 | 0.387 | 0.346 | 0.36 | 0.323
PC-3 [JPC-3] | 0.983 | 0.969 | 1.03 | 0.905 | 1.05 | 1.12 | 0.99 | 1.04 | 0.825 | 0.749 | 0.6 | 0.641 | 0.881 | 0.849 | 0.774 | 0.334 | 0.806 | 0.807 | 0.855 | 0.852
NCI-H2126 | 0.998 | 0.988 | 0.972 | 0.688 | 1.14 | 1.17 | 1.18 | 1.13 | 0.709 | 0.683 | 0.567 | 0.48 | 0.971 | 0.96 | 0.94 | 0.996 | 0.575 | 0.528 | 0.526 | 0.574
LU99A | 0.56 | 0.545 | 0.44 | 0.346 | 0.805 | 0.774 | 0.847 | 0.816 | 0.318 | 0.335 | 0.219 | 0.283 | 0.376 | 0.169 | 0.332 | 0.362 | 0.854 | 0.937 | 0.921 | 0.903
NCI-H23 | 0.424 | 0.592 | 0.344 | 0.354 | 1.1 | 1.11 | 1.05 | 0.902 | 0.646 | 0.503 | 0.455 | 0.337 | 0.333 | 0.192 | 0.188 | 0.229 | 0.325 | 0.318 | 0.295 | 0.332
PC-14 | 0.909 | 0.928 | 0.926 | 0.681 | 0.903 | 0.993 | 0.985 | 0.994 | 0.746 | 0.911 | 0.597 | 0.661 | 0.326 | 0.243 | 0.329 | 0.366 | 0.22 | 0.248 | 0.215 | 0.253
